Results reported in ChEMBL document CHEMBL1201862, “PubChem BioAssay data set” (2004).
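Protocol summary: plate cells (96-well), add compound at 5 concentrations, incubate 48 h, interpolate endpoints linearly. GI50 is the concentration that inhibits growth by half.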 Calls of active or inactive are those of the source. Rule as the data show it: active = GI50 up to about 1.1 µM and inactive = higher.

What was measured:
Experiment in all cases: NCI-60 cell line screen, 48 h
[1] = test system: NCI-H522
[2] = test system: CAKI-1
[3] = test system: SK-MEL-28
[4] = test system: NCI/ADR-RES
[5] = test system: HT-29
[6] = test system: Malme-3M
[7] = test system: ACHN
[8] = test system: NCI-H23
[9] = test system: HOP-92
[10] = test system: RPMI-8226
[11] = test system: SF-539
[12] = test system: RXF 393
[13] = test system: SNB-75
[14] = test system: 786-0
[15] = test system: UACC-257
[16] = test system: KM12
[17] = test system: UO-31
[18] = test system: IGROV-1
[19] = test system: SW-620
[20] = test system: SR

Compound	GI50 [1]	GI50 [2]	GI50 [3]	GI50 [4]	GI50 [5]	GI50 [6]	GI50 [7]	GI50 [8]	GI50 [9]	GI50 [10]	GI50 [11]	GI50 [12]	GI50 [13]	GI50 [14]	GI50 [15]	GI50 [16]	GI50 [17]	GI50 [18]	GI50 [19]	GI50 [20]
O=C(Nc1sccc1S(=O)(=O)c1ccccc1)c1cccnc1	7.98 µM (inactive)	> 32.7 µM (inactive)	38.5 µM (inactive)	3.96 µM (inactive)	5.68 µM (inactive)	8.59 µM (inactive)	64.9 µM (inactive)	27 µM (inactive)	> 42.4 µM (inactive)	7.52 µM (inactive)	5.94 µM (inactive)	14.9 µM (inactive)	19.1 µM (inactive)	12 µM (inactive)	37.5 µM (inactive)	4.62 µM (inactive)	> 58.1 µM (inactive)	9.02 µM (inactive)	5.92 µM (inactive)	5.2 µM (inactive)
O/N=N/c1ccccn1.OCC1OC2OC3C(CO)OC(OC4C(CO)OC(OC5C(CO)OC(OC6C(CO)OC(OC7C(CO)OC(OC1C(O)C2O)C(O)C7O)C(O)C6O)C(O)C5O)C(O)C4O)C(O)C3O (configuration not stated)	68.2 µM (inactive)	> 100 µM (inactive)	62.5 µM (inactive)	31.9 µM (inactive)	> 100 µM (inactive)	61 µM (inactive)	> 100 µM (inactive)	> 100 µM (inactive)	> 100 µM (inactive)	27.3 µM (inactive)	52.8 µM (inactive)	> 100 µM (inactive)	37.6 µM (inactive)	> 100 µM (inactive)	71.1 µM (inactive)	82.4 µM (inactive)	> 100 µM (inactive)	> 100 µM (inactive)	42.1 µM (inactive)	0.583 µM (active)
C[C@@]12C[C@@H](c3ccccc3O1)N1CCCCSC1=N2	> 100 µM (inactive)	> 100 µM (inactive)	> 100 µM (inactive)	> 100 µM (inactive)	> 100 µM (inactive)	> 100 µM (inactive)	> 100 µM (inactive)	> 100 µM (inactive)	> 100 µM (inactive)	> 100 µM (inactive)	> 100 µM (inactive)	> 100 µM (inactive)	> 100 µM (inactive)	> 100 µM (inactive)	> 100 µM (inactive)	> 100 µM (inactive)	> 100 µM (inactive)	> 100 µM (inactive)	> 100 µM (inactive)	> 100 µM (inactive)
CCCSc1ccc2[nH]c(N3C(=O)/C(=C/c4ccco4)N=C3c3ccccc3)cc2c1	13.2 µM (inactive)	34.7 µM (inactive)	33.7 µM (inactive)	19.6 µM (inactive)	21.3 µM (inactive)	> 50 µM (inactive)	38.8 µM (inactive)	34.8 µM (inactive)	> 50 µM (inactive)	16.7 µM (inactive)	9.42 µM (inactive)	22.9 µM (inactive)	44 µM (inactive)	23.7 µM (inactive)	18.2 µM (inactive)	17.7 µM (inactive)	38.3 µM (inactive)	40.1 µM (inactive)	20.8 µM (inactive)	7.26 µM (inactive)
N#Cc1nc(-c2ccco2)oc1N	> 10 µM (inactive)	> 10 µM (inactive)	> 10 µM (inactive)	> 10 µM (inactive)	> 10 µM (inactive)	> 10 µM (inactive)	> 10 µM (inactive)	> 10 µM (inactive)	> 10 µM (inactive)	> 10 µM (inactive)	> 10 µM (inactive)	> 10 µM (inactive)	> 10 µM (inactive)	> 10 µM (inactive)	> 10 µM (inactive)	> 10 µM (inactive)	> 10 µM (inactive)	> 10 µM (inactive)	> 10 µM (inactive)	> 10 µM (inactive)
O=C(O)C1CCCN1Cc1ccc2c(c1)OCO2 (configuration not stated)	> 100 µM (inactive)	> 100 µM (inactive)	> 100 µM (inactive)	> 100 µM (inactive)	> 100 µM (inactive)	> 100 µM (inactive)	> 100 µM (inactive)	> 100 µM (inactive)	> 100 µM (inactive)	> 100 µM (inactive)	> 100 µM (inactive)	> 100 µM (inactive)	18.4 µM (inactive)	> 100 µM (inactive)	> 100 µM (inactive)	> 100 µM (inactive)	> 100 µM (inactive)	> 100 µM (inactive)	> 100 µM (inactive)	14.5 µM (inactive)
CCN(CC)c1ncnc2c1ncn2CCNC(CO)(CO)CO	> 100 µM (inactive)	> 100 µM (inactive)	> 100 µM (inactive)	> 100 µM (inactive)	> 100 µM (inactive)	> 100 µM (inactive)	> 100 µM (inactive)	> 100 µM (inactive)	> 100 µM (inactive)	> 100 µM (inactive)	> 100 µM (inactive)	> 100 µM (inactive)	> 100 µM (inactive)	> 100 µM (inactive)	> 100 µM (inactive)	> 100 µM (inactive)	> 100 µM (inactive)	> 100 µM (inactive)	> 100 µM (inactive)	> 100 µM (inactive)
Nc1nc2c(ncn2Cc2ccc(CO)cc2)c(=O)[nH]1	> 100 µM (inactive)	> 100 µM (inactive)	> 100 µM (inactive)	> 100 µM (inactive)	> 100 µM (inactive)	> 100 µM (inactive)	> 100 µM (inactive)	> 100 µM (inactive)	> 100 µM (inactive)	> 100 µM (inactive)	> 100 µM (inactive)	> 100 µM (inactive)	> 100 µM (inactive)	> 100 µM (inactive)	> 100 µM (inactive)	> 100 µM (inactive)	> 100 µM (inactive)	> 100 µM (inactive)	> 100 µM (inactive)	95.5 µM (inactive)
N#Cc1cc(C#N)c(N)nc1N	> 100 µM (inactive)	> 100 µM (inactive)		> 100 µM (inactive)	> 100 µM (inactive)	> 100 µM (inactive)	> 100 µM (inactive)	> 100 µM (inactive)	> 100 µM (inactive)	> 100 µM (inactive)	> 100 µM (inactive)	> 100 µM (inactive)	> 100 µM (inactive)	> 100 µM (inactive)	> 100 µM (inactive)	> 100 µM (inactive)	> 100 µM (inactive)	> 100 µM (inactive)	> 100 µM (inactive)	19.1 µM (inactive)
Cc1cn(C2CC(O)C(Cn3nncc3Cn3ccc(=O)[nH]c3=O)O2)c(=O)[nH]c1=O (configuration not stated)	> 100 µM (inactive)	> 100 µM (inactive)	> 100 µM (inactive)	> 100 µM (inactive)	> 100 µM (inactive)	> 100 µM (inactive)	> 100 µM (inactive)	> 100 µM (inactive)	> 100 µM (inactive)	> 100 µM (inactive)	> 100 µM (inactive)	> 100 µM (inactive)	> 100 µM (inactive)	> 100 µM (inactive)	> 100 µM (inactive)	> 100 µM (inactive)	> 100 µM (inactive)	> 100 µM (inactive)	> 100 µM (inactive)	> 100 µM (inactive)
C=CCN1CN(C2CCCCC2)CSC1=S	2.8 µM (inactive)	4.72 µM (inactive)	5.18 µM (inactive)	8.83 µM (inactive)	3.48 µM (inactive)	3.16 µM (inactive)	4.02 µM (inactive)	8.28 µM (inactive)	5.18 µM (inactive)	1.04 µM (active)	1.36 µM (inactive)	4.04 µM (inactive)	6.12 µM (inactive)	3.27 µM (inactive)	3.68 µM (inactive)	3.19 µM (inactive)	8 µM (inactive)	8.34 µM (inactive)	0.733 µM (active)	0.148 µM (active)
Cc1ccc(C(=O)Nc2ccc(CP(=O)(O)O)cc2)cc1NC(=O)c1cccc(N)c1	> 100 µM (inactive)	> 100 µM (inactive)	> 100 µM (inactive)	> 100 µM (inactive)	> 100 µM (inactive)	> 100 µM (inactive)	> 100 µM (inactive)	> 100 µM (inactive)	> 100 µM (inactive)	> 100 µM (inactive)	> 100 µM (inactive)	> 100 µM (inactive)	> 100 µM (inactive)	> 100 µM (inactive)	> 100 µM (inactive)	> 100 µM (inactive)	> 100 µM (inactive)	> 100 µM (inactive)	> 100 µM (inactive)	> 100 µM (inactive)
CC1CC(C)CN(S(=O)(=O)c2cc(Cl)c(Oc3ccc([N+](=O)[O-])cc3Cl)c(Cl)c2)C1 (configuration not stated)	> 100 µM (inactive)	> 100 µM (inactive)	> 100 µM (inactive)	> 100 µM (inactive)	> 100 µM (inactive)	> 100 µM (inactive)	> 100 µM (inactive)	> 100 µM (inactive)	> 100 µM (inactive)	> 100 µM (inactive)	> 100 µM (inactive)	> 100 µM (inactive)	> 100 µM (inactive)	> 100 µM (inactive)	> 100 µM (inactive)	> 100 µM (inactive)	> 100 µM (inactive)	> 100 µM (inactive)	> 100 µM (inactive)	> 100 µM (inactive)
COc1cc(OC)nc(NC(=O)NS(=O)(=O)c2cccc3ncn(C)c(=O)c23)n1	> 100 µM (inactive)	> 100 µM (inactive)		> 100 µM (inactive)	> 100 µM (inactive)	> 100 µM (inactive)	> 100 µM (inactive)	> 100 µM (inactive)	> 100 µM (inactive)	> 100 µM (inactive)	> 100 µM (inactive)	> 100 µM (inactive)	41.3 µM (inactive)	> 100 µM (inactive)	> 100 µM (inactive)		> 100 µM (inactive)	> 100 µM (inactive)	> 100 µM (inactive)	> 100 µM (inactive)
